Experimental data from patent publication EP4810498A1, “MEDICATION FOR TREATING SEVERE MALARIA AND SYNTHESIS METHOD THEREFOR” (Institute of Chinese Materia Medica, China Academy of …, priority 2023, dated 2025).
Read-outs that look alike come from different tables or passages of the source.

Columns and labels:
[1] = tested on: Plasmodium falciparum 3D7; experiment: SYBR Green assay, growth inhibition of Plasmodium falciparum cultured in vitro; assay type: cell-based
Protocol: Plasmodium falciparum in the ring stage was synchronized. Smearing was carried out and the infection rate was counted. The synchronized parasitized red blood cells, healthy red blood cells and mediums were matched in a reasonable ratio, resulting in an in vitro culture system of plasmodia (ring bodies, 2 to 4 hours-old) with a hematocrit of 2% and an infection rate of 1%. […] A1-A10 was paved with 25 µl of drugs (with 8 complex wells for each drug) and mixed evenly, and then diluted in multiple proportions (Ax-Hx). Except for A12-H12, 50 µL of a plasmodium culture solution was spread in all the other wells; and A12-H12 was spread with 50 µl of healthy red blood cells (in the medium with a hematocrit of 2%). […] 100 µl of a lysis buffer was added to each of the wells and put into a drawer to avoid light for 1 h.
In this experiment, SYBR Green assay was used to determine the median inhibitory concentration (IC50) value of the drug for treating Plasmodium falciparum 3D7. Nonlinear regression was used to calculate the value by means of software graphpad prism 8.0 (the value was equal to average value plus or minus standard error), and a four-parameter logistic fitting curve was used. Each value in the curve was equal to average value plus or minus standard error in eight biological repetitive experiments.

[2] = tested on: Plasmodium berghei ANKA strain; experiment: Recurrence rate of cerebral malaria model mice (blood smear); assay type: in vivo, C57BL/6J mice; settings: AS group (15.6 mg/kg)
From the text: (§1) Experimental study on the antimalarial activity of Artesunazine (Example Ia-1) in vitro and vivo. I. Protection of Artesunazine on mice infected by Plasmodium berghei ANKA strain. (I) Experimental materials: • 1. Animals: C57BL/6J, weighing 16-18 g, 10 in each group, 50 in total. • 2. Plasmodium strain: Plasmodium berghei ANKA strain, donated by Professor Zhao Ya of Air Force Medical University of the People's Liberation Army of China (The Fourth Military Medical University), was preserved in our laboratory by blood transmission or freezing. • 3. Drugs and preparation methods: Artesunazine and a positive control drug artesunate were dissolved in a mixed solvent of polyethylene glycol 400 (PEG400) and water (PEG400:water=4:1), serving as a preparation for immediate use. (II) Experimental methods • 1. Plasmodium resuscitation and passage: A Plasmodium berghei ANKA strain frozen in liquid nitrogen was taken out and placed in a water bath kettle at 37°C. After melting, it was immediately intraperitoneally inoculated into C57BL/6J mice (0.2 mL/mouse). When the infection rate of the breeding mice reached 15-30%, their eyeballs were removed and blood was collected in an anticoagulant tube. After shaking well, the blood was transmitted to offspring C57BL/6J mice with a 1 mL syringe at an injection dose of 0.2 mL/mouse. • 2. Plasmodium inoculation: C57BL/6J mice were weighed and fed adaptively. When the infection rate of offspring C57BL/6J mice reached 15-30%, the total number of red blood cells and the number of pRBCs were counted after their eyeballs were removed and blood was collected. The blood was injected intraperitoneally into model group C57BL/6J mice at an injection dose of 0.2 mL (including 1×10^7 pRBCs) per mouse, which was the 0th day (D0) of inoculation. • 3. Animal grouping: After inoculation, the experimental mice were randomly divided into 5 groups, including a model (M) group, high, medium and low dose Artesunazine groups (i.e., 40 mg/kg, 20 mg/kg, and 10 mg/kg Artesunazine), and an artesunate group (i.e., 15.6 mg/kg AS, clinically equivalent dose). The dosage of the medium dose Artesunazine group (20mg/kg Artesunazine) is equivalent to that of the artesunate group (15.6 mg/kg). There are 10 mice in each group, a total of 50 mice. • 4. Determination of survival rate From the 0th day of inoculation, the death of mice was observed every day for 28 consecutive days. Survival rate = (Number of surviving mice)/(Number of experimental mice) × 100% [formula] • 5. Determination of recurrence rate After inoculation, the mice were randomly divided into groups and administered via nasal drip for 3 h. After four consecutive days of administration, blood smear test began at D4. A small drop of blood was taken from the tail tip of a mouse and dropped onto a glass slide. The blood drop was pushed to one end at a certain angle with the edge of another glass slide to make a thin blood film with appropriate thickness. After the thin blood film was air-dried, it was fixed with methanol and placed until completely air-dried. After a Giemsa stain solution was diluted at a ratio of 1:9 for staining (completely covering the fixed thin blood film) for 20 min, the thin blood film was rinsed under a faucet, and the water on the surface of the film was quickly absorbed with filter paper. A drop of cedar oil was dropped onto a glass slide for examination under a 100x oil microscope to count the number of parasitized red blood cells contained in 1000 red blood cells. The mouse recurrence rate was calculated by the ratio of the number of mice with recurrence to the total number of mice. Recurrence rate = (Number of mice with recurrence)/(Number of experimental mice) × 100% [formula] • 6. RMCBS score determination A rapid mouse coma behavior scale (RMCBS) was used to evaluate the neurological function of experimental mice. […]

[3] = tested on: Plasmodium berghei ANKA strain; experiment: Rapid mouse coma behavior scale (RMCBS) score of cerebral malaria model mice; assay type: in vivo, C57BL/6J mice; settings: AS group (15.6 mg/kg), at the end point of observation; total of 20 points
From the text: as §1, with “After four consecutive days of administration, blood smear test began at D4. A small drop of blood was taken from the tail tip of a mouse and dropped onto a glass slide. The blood drop was pushed to one end at a certain angle with the edge of another glass slide to make a thin blood film with appropriate thickness. After the thin blood film was air-dried, it was fixed with methanol and placed until completely air-dried. After a Giemsa stain solution was diluted at a ratio of 1:9 for staining (completely covering the fixed thin blood film) for 20 min, the thin blood film was rinsed under a faucet, and the water on the surface of the film was quickly absorbed with filter paper. A drop of cedar oil was dropped onto a glass slide for examination under a 100x oil microscope to count the number of parasitized red blood cells contained in 1000 red blood cells.” left out, “mice.” for “mice. Recurrence rate = (Number of mice with recurrence)/(Number of experimental mice) × 100% [formula] • 6. RMCBS score determination A rapid mouse coma behavior scale (RMCBS) was used to evaluate the neurological function of experimental mice.”

[4] = mixed solution with ligustrazine hydrochloride in 80% polyethylene glycol 400, dark environment at 40°C
Protocol: 160.2 mg of Artesunazine was weighed and put into a penicillin bottle, 8 mL of a 80% polyethylene glycol 400 solution was added, and the Artesunazine was completely dissolved by ultrasonic treatment, resulting in about 20.25 mg/mL Artesunazine solution. Subsequently, the penicillin bottle filled with the solution was sealed, covered with aluminum foil paper for light avoidance treatment, and placed in a stability test box at 40°C; and 0.5 mL to 25 mL of the solution was sampled into volumetric flasks on days 0, 3, 7, and 10, respectively. After diluting with methanol and shaking well, the content of the Artesunazine was determined by an ultra performance liquid chromatography (UPLC) method.
The UPLC determination conditions for the Artesunazine are as follows: Instrument: ultra performance liquid chromatography Waters ACQUITY UPLC, chromatographic column: ACQUITY UPLC HSS T3 Column (100 Å, 1.8 µm, 2.1 mm×100 mm), detection wavelength: 295 nm, mobile phase: acetonitrile-0.1% phosphoric acid water (35:65), flow rate: 0.3 ml/min, column temperature: 30°C, sample room temperature: 25°C, injection volume: 3 µL. […]

[5] = tested on: Plasmodium berghei ANKA strain; experiment: Survival rate of cerebral malaria model mice; assay type: in vivo, C57BL/6J mice; settings: 15.6 mg/kg AS, nasal drip, four consecutive days; 28 days of observation
From the text: as §1, with “After four consecutive days of administration, blood smear test began at D4. A small drop of blood was taken from the tail tip of a mouse and dropped onto a glass slide. The blood drop was pushed to one end at a certain angle with the edge of another glass slide to make a thin blood film with appropriate thickness. After the thin blood film was air-dried, it was fixed with methanol and placed until completely air-dried. After a Giemsa stain solution was diluted at a ratio of 1:9 for staining (completely covering the fixed thin blood film) for 20 min, the thin blood film was rinsed under a faucet, and the water on the surface of the film was quickly absorbed with filter paper. A drop of cedar oil was dropped onto a glass slide for examination under a 100x oil microscope to count the number of parasitized red blood cells contained in 1000 red blood cells.” left out, “mice.” for “mice. Recurrence rate = (Number of mice with recurrence)/(Number of experimental mice) × 100% [formula] • 6. RMCBS score determination A rapid mouse coma behavior scale (RMCBS) was used to evaluate the neurological function of experimental mice.”

[6] = tested on: Plasmodium berghei ANKA strain; experiment: Body weight of cerebral malaria model mice; assay type: in vivo, C57BL/6J mice; settings: AS group (15.6 mg/kg), at the end of the observation; in g (unit assumed)
From the text: as §1, with “After four consecutive days of administration, blood smear test began at D4. A small drop of blood was taken from the tail tip of a mouse and dropped onto a glass slide. The blood drop was pushed to one end at a certain angle with the edge of another glass slide to make a thin blood film with appropriate thickness. After the thin blood film was air-dried, it was fixed with methanol and placed until completely air-dried. After a Giemsa stain solution was diluted at a ratio of 1:9 for staining (completely covering the fixed thin blood film) for 20 min, the thin blood film was rinsed under a faucet, and the water on the surface of the film was quickly absorbed with filter paper. A drop of cedar oil was dropped onto a glass slide for examination under a 100x oil microscope to count the number of parasitized red blood cells contained in 1000 red blood cells.” left out, “mice.” for “mice. Recurrence rate = (Number of mice with recurrence)/(Number of experimental mice) × 100% [formula] • 6. RMCBS score determination A rapid mouse coma behavior scale (RMCBS) was used to evaluate the neurological function of experimental mice.”

[7] = Plasmodium falciparum, 3D7, 72 h

Question: Which IC50 ([1]; Plasmodium falciparum standard strain 3D7, cultured for 72 h, read-out: IC50) does the source give for `Cc1nc(C)c(COCCOC2OC3OC4(C)CCC5C(C)CCC(C2C)C35OO4)nc1C` [Compound Ia-8, 2,3,5-trimethyl-6-[(2-(((3R, 5aS, 6R, 9R, 12R, 12aR)-3,6,9-trimethylbicyclo [3.2.1]heptane-12H-3, 12-epoxide [1, 2]dioxacycloheptane [4,3-i]isochromene-10-yl)oxy)ethoxy)methyl] pyrazine] here?
Answer: The IC50 was 107 nM.

Question: Which IC50 [1, 7] does the source give for `Cc1nc(C)c(COC(=O)C2CCN(CC(=O)OC3OC4OC5(C)CCC6C(C)CCC(C3C)C46OO5)CC2)nc1C` [Compound Ia-9, (3,5,6-trimethylpyrazine-2-yl) methyl 1-(2-oxy-2-(((3R, 5aS, 6R, 9R, 10S, 12R, 12aR)-3,6,9-trimethyldecahydro-12H-3, 12-epoxy [1, 2]dioxacycloheptane-10-yl)oxy)ethyl) piperidine-4-formate] here?
Answer: Its IC50 is 32.7 nM.

Question: For `C[C@@H]1CC[C@H]2[C@@H](C)C(=O)O[C@@H]3O[C@@]4(C)CC[C@@H]1[C@]32OO4` [artemisinin, reference compound], which IC50 ([1]; Plasmodium falciparum, 3D7, standard antimalarial drug given for comparison, source of the value not stated, read-out: IC50) is on record?
Answer: The IC50 was roughly 11.8 nM.

Question: For `C[C@H]1[C@H](OC(=O)CCC(=O)O)O[C@@H]2O[C@@]3(C)CC[C@H]4[C@H](C)CC[C@@H]1[C@@]24OO3` [artesunate, dihydroartemisinin-12-α-succinate, reference compound], which “Recurrence rate (%) D4” value ([2]; D4) is on record?
Answer: Its value is 10%.

Question: And the “Recurrence rate (%) D7” value ([2]; D7)?
Answer: The value was 90%.

Question: And the “Recurrence rate (%) D28” value ([2]; D28)?
Answer: The value was 100%.

Question: And the IC50 [1, 7]?
Answer: The IC50 was 8.82 nM.

Question: What about the RMCBS score [3] of the same molecule?
Answer: The RMCBS score was 16.22±0.55 points.

Question: And the content of artesunate [4]?
Answer: The content of artesunate was “rapidly decreased”.

Question: And the survival rate [5]?
Answer: The survival rate was 40%.

Question: What about the body weight [6] of the same molecule?
Answer: Its body weight is 15.41±0.50.

Question: With `CCN(CC)CCCC(C)Nc1ccnc2cc(Cl)ccc12` (stereo not shown) [chloroquine, reference compound] as the molecule, how does the IC50 ([1]; Plasmodium falciparum, 3D7) read?
Answer: The IC50 was roughly 2.36 nM.

Question: Which IC50 ([1]; Plasmodium falciparum, 3D7, standard antimalarial drugs given for comparison, source of the values not stated, read-out: IC50) does the source give for `OC(c1cc(C(F)(F)F)nc2c(C(F)(F)F)cccc12)C1CCCCN1` (stereo not shown) [mefloquine, reference compound] here?
Answer: Its IC50 is roughly 3.96 nM.
